According to patent publication US20070243161A1, “Epigenetic modification of the loci for CAMTA1 and/or FOXP3 as a marker for cancer treatment” (priority 2006, published 2007):

Experiments:
Foxp3 = assay: Intracellular Foxp3 expression by FACS in TGF-β-cultured CD25-CD4+ T cells; assay type: cell-based, BALB/c mice
Method: Cytometric analysis was performed as previously described (Huehn, J. et al. Developmental stage, phenotype and migration distinguish naive- and effector/memory-like CD4+ regulatory T cells. J Exp Med 199, 303-313 (2004)) using a FACS Calibur or a LSRII (BD Biosciences) and the CellQuest™ software. Dead cells were excluded by PI (propidium iodide) or DAPI (diamidophenylindole) staining (Sigma). Intracellular Foxp3 staining was performed with the PE anti-mouse Foxp3 staining set according to the manufacturers instructions.
D4+ T cells were isolated from pooled spleen and LN single cell suspensions by using anti CD4-FITC plus anti FITC multisort microbeads and the AutoMACS magnetic separation system (Miltenyi Biotec). After release of beads according to the manufacturer's instructions, CD25+ cells were depleted by using anti CD25-APC plus anti APC microbeads. To avoid the expansion of pre-committed Foxp3+ Tregs, the inventors excluded the majority of residual Foxp3+ Tregs from the CD25−CD4+ T cell fraction by sorting for CD62L^high cells using anti CD62L microbeads. MACS-sorted CD62L^highCD25−CD4+ T cells were stimulated for 3 days using plate bound anti CD3 (6 μg/ml) and anti CD28 (4 μg/ml). For Th1 cultures 5 μg/ml anti-IL-4, 20 ng/ml IFN-γ and 5 ng/ml IL-12 was added to the medium. […] Foxp3 expression of sorted CD25+ cells was analyzed by intracellular staining. […]

foxp3 locus = assay: Bisulphite sequencing of the foxp3 locus in CD25-CD4+ T cells cultured with TGF-β; assay type: cell-based, BALB/c mice
Text: D4+ T cells were isolated from pooled spleen and LN single cell suspensions by using anti CD4-FITC plus anti FITC multisort microbeads and the AutoMACS magnetic separation system (Miltenyi Biotec). After release of beads according to the manufacturer's instructions, CD25+ cells were depleted by using anti CD25-APC plus anti APC microbeads. To avoid the expansion of pre-committed Foxp3+ Tregs, the inventors excluded the majority of residual Foxp3+ Tregs from the CD25−CD4+ T cell fraction by sorting for CD62L^high cells using anti CD62L microbeads. MACS-sorted CD62L^highCD25−CD4+ T cells were stimulated for 3 days using plate bound anti CD3 (6 μg/ml) and anti CD28 (4 μg/ml). For Th1 cultures 5 μg/ml anti-IL-4, 20 ng/ml IFN-γ and 5 ng/ml IL-12 was added to the medium. For TGF-β cultures 5 ng/ml TGF-β and 10 ng/ml IL-2 was used. After 3 days, cells were removed from the stimulus, transferred to non-coated plates and cultured for another 3 days. All cell culture was done with RPMI 1640 (Gibco) supplemented with 10% FCS (Sigma). On day 6, cultured cells were stained using anti CD25-APC and sorted for CD25+ cells by FACS (Aria). Foxp3 expression of sorted CD25+ cells was analyzed by intracellular staining. For restimulation experiments sorted CD25+ cells were stimulated for 3 days using plate bound anti CD3 (6 μg/ml) and anti CD28 (4 μg/ml) plus IL-2 (10 ng/ml). After 3 days, cells were removed from the stimulus, transferred to non-coated plates and cultured for another 3 days. On day 6, cultured cells were stained for CD25 and Foxp3 as described above.
Genomic DNA was isolated from purified T cells using the DNeasy tissue kit (Qiagen) following the supplier's recommendations. Sodium bisulphite treatment of genomic DNA was performed according to Olek et al. (Olek, A., Oswald, J. and Walter, J. A modified and improved method for bisulphite based cytosine methylation analysis. Nucleic Acids Res 24, 5064-6 (1996)) with minor modifications, resulting in the deamination of unmethylated cytosines to uracil, whereas methylated cytosines remain unchanged. In a subsequent PCR amplification uracils were replicated as thymidines. Thus, detection of a “C” in sequencing reactions reflects methylation of the genomic DNA at that site. Detection of a “T” at the same site instead reflects the absence of a methyl modification of the genomic cytosine.
PCRs were performed on MJ Research thermocyclers (Waltham) in a final volume of 25 μl containing 1×PCR Buffer, 1 U Taq DNA polymerase (Qiagen), 200 μM dNTPs, 12.5 pmol each of forward and reverse primers, and 7 ng of bisulphite-treated genomic DNA. The amplification conditions were 95° C. for 15 min and 40 cycles of 95° C. for 1 min, 55° C. for 45 sec and 72° C. for 1 min and a final extension step of 10 min at 72° C. PCR products were purified using ExoSAP-IT USB Corp.) and sequenced in both directions applying the PCR primers and the ABI Big Dye Terminator v1.1 cycle sequencing chemistry (Applied Biosystems) followed by capillary electrophoresis on an ABI 3100 genetic analyzer. Trace files were interpreted using ESME, which normalizes sequence traces, corrects for incomplete bisulphite conversion and allows for quantification of methylation signals (Lewin, J., Schmitt, A. O., Adorjan, P., Hildmann, T. and Piepenbrock, C. Quantitative DNA methylation analysis based on four-dye trace data from direct sequencing of PCR amplificates. Bioinformatics 20, 3005-12 (2004)). For each sample both PCR amplification and sequencing was repeated once. The following primers (5′ to 3′ direction) were used for both PCR amplification of bisulphite converted genomic DNA and sequence reactions: […]

[1] = cell culture in the presence of TGF-β
[2] = sorted CD25+ cells, day 6 TGF-β culture, exp. 1
[3] = sorted CD25+ cells, day 6 TGF-β culture, exp. 2

TGF-β: cytokine (R and D Systems) added at 5 ng/ml with IL-2 to induce Foxp3+ Tregs from CD25-CD4+ T cells
Foxp3+ cells among TGF-β-cultured cells (Foxp3; CD25-CD4+ T cells activated and cultured 6 days with TGF-β, day 6): > 98% | Foxp3 expression after restimulation (Foxp3; TGF-β-induced Tregs restimulated 6 days in the absence of TGF-β): lost Foxp3 expression | methylation of CpG motifs in amplicons 3 and 4 (foxp3 locus; [1]): fully methylated | methylation of CpG motifs within region covered by amplicons 1 and 2 (foxp3 locus; [1]): clearly visible demethylation | degree of methylation, CpG motif amplicon 1 (158) (foxp3 locus; [2]): 100% | degree of methylation, CpG motif amplicon 1 (180) (foxp3 locus; [2]): 92% | degree of methylation, CpG motif amplicon 1 (308) (foxp3 locus; [2]): 63% | degree of methylation, CpG motif amplicon 1 (344) (foxp3 locus; [2]): 41% | degree of methylation, CpG motif amplicon 1 (360) (foxp3 locus; [2]): 60% | degree of methylation, CpG motif amplicon 1 (394) (foxp3 locus; [2]): 28% | degree of methylation, CpG motif amplicon 1 (421) (foxp3 locus; [2]): 42% | degree of methylation, CpG motif amplicon 1 (426) (foxp3 locus; [2]): 48% | degree of methylation, CpG motif amplicon 2 (205) (foxp3 locus; [2]): 74% | degree of methylation, CpG motif amplicon 2 (224) (foxp3 locus; [2]): 72% | degree of methylation, CpG motif amplicon 2 (228) (foxp3 locus; [2]): 100% | degree of methylation, CpG motif amplicon 2 (236) (foxp3 locus; [2]): 75% | degree of methylation, CpG motif amplicon 2 (298) (foxp3 locus; [2]): 64% | degree of methylation, CpG motif amplicon 2 (368) (foxp3 locus; [2]): 39% | degree of methylation, CpG motif amplicon 3 (93) (foxp3 locus; [2]): 100% | degree of methylation, CpG motif amplicon 3 (170) (foxp3 locus; [2]): 100% | degree of methylation, CpG motif amplicon 3 (173) (foxp3 locus; [2]): 100% | degree of methylation, CpG motif amplicon 3 (176) (foxp3 locus; [2]): 100% | degree of methylation, CpG motif amplicon 3 (281) (foxp3 locus; [2]): 100% | degree of methylation, CpG motif amplicon 4 (69) (foxp3 locus; [2]): 100% | degree of methylation, CpG motif amplicon 4 (311) (foxp3 locus; [2]): 100% | degree of methylation, CpG motif amplicon 4 (315) (foxp3 locus; [2]): 100% | degree of methylation, CpG motif amplicon 4 (319) (foxp3 locus; [2]): 100% | degree of methylation, CpG motif amplicon 4 (338) (foxp3 locus; [2]): 90% | degree of methylation, CpG motif amplicon 4 (371) (foxp3 locus; [2]): 100% | degree of methylation, CpG motif amplicon 1 (158) (foxp3 locus; [3]): 100% | degree of methylation, CpG motif amplicon 1 (180) (foxp3 locus; [3]): 93% | degree of methylation, CpG motif amplicon 1 (308) (foxp3 locus; [3]): 75% | degree of methylation, CpG motif amplicon 1 (344) (foxp3 locus; [3]): 41% | degree of methylation, CpG motif amplicon 1 (360) (foxp3 locus; [3]): 70% | degree of methylation, CpG motif amplicon 1 (394) (foxp3 locus; [3]): 38% | degree of methylation, CpG motif amplicon 2 (205) (foxp3 locus; [3]): 67.5% | degree of methylation, CpG motif amplicon 2 (224) (foxp3 locus; [3]): 75% | degree of methylation, CpG motif amplicon 2 (228) (foxp3 locus; [3]): 90% | degree of methylation, CpG motif amplicon 2 (236) (foxp3 locus; [3]): 66% | degree of methylation, CpG motif amplicon 2 (298) (foxp3 locus; [3]): 43% | degree of methylation, CpG motif amplicon 2 (368) (foxp3 locus; [3]): 50% | degree of methylation, CpG motif amplicon 3 (170) (foxp3 locus; [3]): 100% | degree of methylation, CpG motif amplicon 3 (173) (foxp3 locus; [3]): 100% | degree of methylation, CpG motif amplicon 3 (176) (foxp3 locus; [3]): 100% | degree of methylation, CpG motif amplicon 3 (281) (foxp3 locus; [3]): 96% | degree of methylation, CpG motif amplicon 4 (69) (foxp3 locus; [3]): 100% | degree of methylation, CpG motif amplicon 4 (311) (foxp3 locus; [3]): 100% | degree of methylation, CpG motif amplicon 4 (315) (foxp3 locus; [3]): 100% | degree of methylation, CpG motif amplicon 4 (319) (foxp3 locus; [3]): 100% | degree of methylation, CpG motif amplicon 4 (338) (foxp3 locus; [3]): 100% | degree of methylation, CpG motif amplicon 4 (371) (foxp3 locus; [3]): 100%
